# Source: patent US6518291B1, “Inhibitors of IMPDH enzyme” (Vertex Pharmaceuticals, Incorporated, priority 1997, dated 2003)
# Target: IMPDH human type II (Homo sapiens, UniProt P12268)
# Assay: IMPDH Activity Inhibition Assay (spectrophotometric, NADH formation at 340 nm)
# Format: biochemical
# Settings: 37° C., tight-binding equations of Henderson
# Procedure: We measured the inhibition constants of the compounds listed in Table II utilizing the following protocol:
# IMP dehydrogenase activity was assayed following an adaptation of the method first reported by Magasanik. [Magasanik, B. Moyed, H. S. and Gehring L. B. (1957) J. Biol. Chem. 226, 339]. Enzyme activity was measured spectrophotometrically, by monitoring the increase in absorbance at 340 nm due to the formation of NADH (ε340 is 6220 M^−1 cm^−1). The reaction mixture contained 0.1 M Tris pH 8.0, 0.1 M KCl, 3 mM EDTA, 2 mM DTT, […] and enzyme (IMPDH human type II) at a concentration of 15 to 50 nM. This solution is incubated at 37° C. for 10 minutes. The reaction is started by adding NAD to a final concentration of […] and the initial rate is measured by following the linear increase in absorbance at 340 nm for 10 minutes. For reading in a standard spectrophotometer (path length 1 cm) the final volume in the cuvette is 1.0 ml. The assay has also been adapted to a 96 well microtiter plate format; in this case the concentrations of all the reagents remain the same and the final volume is decreased to 200 μl.
# For the analysis of inhibitors, the compound in question is dissolved in DMSO to a final concentration of 20 mM and added to the initial assay mixture for preincubation with the enzyme at a final volume of 2-5% (v/v). The reaction is started by the addition of NAD, and the initial rates measured as above. Ki determinations are made by measuring the initial velocities in the presence of varying amounts of inhibitor and fitting the data using the tight-binding equations of Henderson (Henderson, P. J. F. (1972) Biochem. J. 127, 321].
# Ki values are expressed in nM. Category “A” indicates 0.01 to 500 nm activity, category “B” indicates 501-5,000 nm activity, category “C” indicates 5,001 to 15,000 nm activity, category “D” indicates greater than 15,000 nm activity. The designation “ND” is used where a given compound was not tested.
row,SMILES,Ki [nM]
1,c1ccc(Nc2nc3ccccc3[nH]2)cc1 [Compound 2],> 15000
2,COc1ccc(Nc2nc3ccccc3[nH]2)cc1 [Compound 3],> 15000
3,Cc1ccc(Nc2nc3ccccc3[nH]2)cc1 [Compound 4],> 15000
4,COc1ccccc1Nc1nc2ccccc2o1 [Compound 6],> 15000
5,COc1ccccc1Nc1nc2ccccc2s1 [Compound 7],> 15000
6,COc1cc(Nc2nc3ccccc3s2)ccc1C#N [Compound 13],5000 to 15000
7,COc1cc(Nc2nc3ccccc3[nH]2)ccc1C#N [Compound 15],5000 to 15000
8,c1ccc2oc(Nc3ccc(-c4cnco4)cc3)nc2c1 [Compound 18],> 15000
9,COc1ccc(Nc2nc3ccccc3o2)cc1OC [Compound 19],> 15000
10,N#Cc1ccc(Nc2nc3ccccc3o2)cc1Cl [Compound 20],> 15000
11,COc1cc(Nc2nc3ccccc3o2)ccc1C#N [Compound 21],> 15000
12,COc1cc(Nc2nc3cc(C)ccc3o2)ccc1-c1cnco1 [Compound 22],501 to 5000
13,Clc1cc(Nc2nc3ccccc3o2)ccc1-c1cnco1 [Compound 23],501 to 5000
14,COc1cccc(Nc2nc3ccccc3o2)c1 [Compound 24],> 15000

# Other lines, results leading:
row,Ki [nM],SMILES
1,501 to 5000,COc1cc(Nc2nc3ccccc3[nH]2)ccc1-c1cnco1 [Compound 5]
2,0.01 to 500,COc1cc(Nc2nc3ccccc3o2)ccc1-c1cnco1 [Compound 8]
3,0.01 to 500,COc1cc(Nc2nc3ccccc3s2)ccc1-c1cnco1 [Compound 9]
4,0.01 to 500,COC(=O)c1ccc2nc(Nc3ccc(-c4cnco4)c(OC)c3)[nH]c2c1 [Compound 10]
5,501 to 5000,COc1cc(Nc2nc3ccc(CO)cc3[nH]2)ccc1-c1cnco1 [Compound 11]
6,0.01 to 500,COc1cc(Nc2nc3cc(C)ccc3o2)ccc1-c1cnco1 [Compound 12]
7,0.01 to 500,COc1cc(Nc2nc3ccc(C)cc3o2)ccc1-c1cnco1 [Compound 14]
8,0.01 to 500,COc1cc(Nc2nc3c(C)cccc3[nH]2)ccc1-c1cnco1 [Compound 16]
9,0.01 to 500,COc1cc(Nc2nc3cc(C)c(C)cc3o2)ccc1-c1cnco1 [Compound 17]
10,0.01 to 500,C=CCc1cccc2nc(Nc3ccc(-c4cnco4)c(OC)c3)oc12 [Compound 25]
